These results are taken from PMC3909264, “A Novel Acylaminoimidazole Derivative, WN1316, Alleviates Disease Progression via Suppression of Glial Inflammation in ALS Mouse Model” (PLoS ONE, 2014).

Details of series [1]: method as in PMID 23000247. Conditions: cited from earlier work.
Series [2] can be described thus: Water solubility (stated property). Type of series: physicochemical.
Series [3] in a line: Pharmacokinetics of WN-compounds in mice (brain and serum concentration, HPLC). In kind it is in vivo, mouse (C57BL/6N). As to the method:
Wild type mice at 8 weeks (male, C57BL/6N) were used for the analysis of CPN-9, WN1303R, WN1312, WN1315 and WN1316 pharmacokinetics. CPN-9 was suspended in 0.5% carboxymethyl cellulose (CMC)-Na (carmellose sodium, Maruishi Pharmaceutical Co., Ltd.), while WN1303R, WN1312 and WN1316 were dissolved in Milli-Q purified water (MQ water) and WN1315 was dissolved in 0.25 N HCl. CPN-9 (100 mg/kg body weight) and the four WN-compounds (50 mg/kg body weight) were injected intragastrically (i.g.). After 15 min, 30 min, 1 h, 2 h, 4 h, 6 h, and 8 h, blood was collected from heart of each mouse anesthetized with 2% isoflurane by inhalation or 4% halothane in a mixture of N2O/O2 (70∶30). Mice were thereafter perfused transcardially with physiological saline containing 10% heparin under anesthesia, and the whole brain was removed. Each blood sample was centrifuged at 1,000×g for 10 min at 4°C, and the serum fraction was collected. The brain was frozen in liquid nitrogen, and was cryopreserved until use.
We mixed serum with deproteinization buffer (0.05 M H2SO4, 2.5 M K2CO3, and […]), and collected the organic layer after centrifugation at 1,500×g for 10 min. The organic layer was mixed with 0.05 M H2SO4, and then, after centrifugation at 1,500×g for 10 min, the water layer was collected. After the addition of methanol, each serum derived sample was subjected to HPLC.
Mouse whole brain was homogenized with acetonitrile and left at −80°C for 10 min. The supernatant was collected after centrifugation at 10,000×g for 10 min at 4°C and was dried under vacuum. The dried sample was re-dissolved in methanol and mixed with two volumes of 10 mM phosphate buffer (pH7.0), after which the supernatant was collected by centrifugation at 10,000×g for 10 min at 4°C and then left at −80°C for 10 min. To further remove debris, the supernatant was filtered (0.45 µm filter), centrifuged (at 10,000×g for 10 min at 4°C), filtered (0.22 µm filter) and finally centrifuged again. Each sample solution from brain was subjected to HPLC.
The concentrations of CPN-9 and WN1316 in the serum and brain samples were determined by HPLC on a CAPCELL PAK C18 column (SHISEIDO) with 50% acetonitrile (CPN-9), 40% acetonitrile (WN1316) or 45% acetonitrile (WN1303R, WN1312, and WN1315) in 10 mM phosphate buffer (pH 7.0).

Setting [4] is: C57BL/6N mice, intragastric, 100 mg/kg in 0.5% CMC-Na, n = 3, mean ± SD.

`Cc1cc(C)c(OCC(=O)Nc2nc(-c3ccccn3)cs2)c(C)c1` [CPN-9, N-(4-(2-pyridyl)(1,3-thiazol-2-yl))-2-(2,4,6-trimethylphenoxy) acetamide, reference compound]: the “toxicity (in words)” value in series [1] is recorded as “considerable toxicity”. In series [2], the “water solubility (in words)” value was “hardly water soluble”. Besides, in series [3] (setting [4]), the “AUC0–8: Brain” value stood at 1.0±1.3 µg⋅h/g and the “AUC0–8: Serum” value was determined as 5.9±0.8 µg⋅h/ml. Besides, the “BBB permeability (in words)” value in series [3] (mouse, in vivo) is given as “very poor blood-brain-barrier (BBB) permeability”.
